Tests used:
[1] = 5-Cycle Oxidative Hair Treatment Protocol with FT-IR Damage Assessing Protocol; set-up: species or system human; settings: for Damage benefit vs EDTA 2% / Damage after 5 cycles (cysteic acid units): 5 bleaching cycles, pH 10, 1.9% EDDS, 2.0% HEDP, 2.65% DTPA, 3.8% DTPMP; for Damage after 5 cycles (cysteic acid units): 2% EDTA, sodium salts used; for oxidative hair damage prevention (in words): real conditions of use: pH 10, non-deionized water with Cu^2+ and Ca^2+
Procedure: A bleaching composition comprising the chelant to be tested is prepared by mixing in equal weight amounts a hydrogen peroxide emulsion base and an alkaline (high pH) emulsion base. The hydrogen peroxide emulsion base contains: […] 2 g of the bleaching composition per g of hair to be treated was applied on the hair switches and massaged in thoroughly. The hair switches were then wrapped in a plastic film and put in an oven at 30° C. […] The excess water was then squeezed out of the hair, and the hair dried with a fan. […] Prell® shampoo was using during these tests. This Oxidative Hair Treatment Protocol can be repeated several times. When damage is measured according to the FT-IR Damage Assessing Protocol (described below) the Oxidative Hair Treatment Protocol is preferably repeated 5 times and this process is described as a 5-Cycle Oxidative Hair Treatment Protocol. Damage caused to the hair was assessed by the FT-IR (Fourier Transform Infrared) method, which has been established to be suitable for studying the effects of oxidative treatments on hair (Strassburger, J., J. Soc. Cosmet. Chem., 36, 61-74 (1985); Joy, M. & Lewis, D. M., Int. J. Cosmet. Sci., 13, 249-261 (1991); Signori, V. & Lewis, D. M., Int. J. Cosmet. Sci., 19, 1-13 (1997)). In particular, these authors have shown that the method is suitable for quantifying the amount of cysteic acid that is produced from the oxidation of cystine. In general, the oxidation of cystine is thought to be a suitable marker by which to monitor the overall oxidation of the keratinous part of the fiber. Signori & Lewis (D. M., Int. J. Cosmet. […] They have shown that this technique is more suitable than using the FT-IR method in simple transmission or microscope modes. […] The detailed description of the method used for testing the different damage inhibitors follows thereafter: […] In this method, hair switches of various sizes and colours can be used. The switches were […] per cm) in order to minimize variations in surface area of contact between readings. The Oxidative Hair Treatment Protocol described above was repeated for 5 cycles to mimic the behavior of hair after repeated bleaching cycles. Following this treatment, four readings per switch were taken ( 1/3 and 2/3s down the switch on both sides), and an average calculated. Backgrounds were collected every 4 readings, and an ATR cell pressure of IN/m was employed. The cell was cleaned with ethanol between each reading, and a contamination check performed using the monitor ratio mode of the instrument. As prescribed by Signori & Lewis in 1997, a normalized double derivative analysis routine was used. […] This normalized absorbance was then twice derivatised using a 13 point averaging. […] The following instrumental conditions were employed: […] The corresponding weight percentage is indicated in the first line of the table below. The tri-sodium salt of EDDS, tetra-sodium salt of EDTA, di-sodium salt of HEDP, penta-sodium salt of DTPA and tetra-sodium salt of DTPMP were used. EDTA and DTPA are commonly used in hair care compositions. HEDP was cited in U.S. Pat. […] DPTMP is another phosphonate chelant. […] Damage and lightening effects were assessed after 5 cycles according to the test method described above (“Oxidative hair treatment protocol”). Human hair is often bleached or dyed 5 times or more during its life, which makes this 5 cycle test very meaningful.

[2] = 1:1 complexes, fully deprotonated chelants; 25deg, 0.1M ionic strength; cited from earlier work
[3] = 1:1 complexes, fully deprotonated chelants; 25deg, 0.1M ionic strength; cited from earlier work; remark: listed apart in the source
[4] = Hydrogen Peroxide Decomposition Ratio Measurement Protocol
Procedure: The Hydrogen Peroxide Decomposition Ratio Measurement Protocol is defined as follows: 6.0% by weight of concentrated ammonium hydroxide (30% active ammonia) is added to deionised water and the pH of the solution is adjusted to 10 using acetic acid. 300 ppm of copper sulphate and 0.026M of the chelant to be tested are added to said composition. […] The initial level of hydrogen peroxide is measured at this moment (t=0); the final level of hydrogen peroxide is measured after 30 minutes. The value of the ratio of the hydrogen peroxide concentration at t=0 and at t=30 mn is the Hydrogen Peroxide Decomposition Ratio (% Loss).
The initial and final level of hydrogen peroxide can be measured according to any standard technique. The following is a well-known and standard technique that was used by the inventors: 0.2-0.3 g (the exact quantity being precisely measured) of the solution to be titrated is added to 40 ml of 10% acetic acid. […] The level of hydrogen peroxide (% Peroxide) is then calculated from the following equation: [formula]
Three replicate runs are made at both t=0 and t=30 mn and then averaged to calculate the Hydrogen Peroxide Decomposition Ratio (% Loss).

[5] = log Conditional Stability Constant at pH 10 with Cu; type: physicochemical
Excerpt: The Conditional Stability Constant is a parameter commonly used in the art to practically assess the stability of metal-chelant complex at a given pH.

Molecule | Damage benefit vs EDTA 2% [1] | log K Cu [2] | log K Ca [3] | Damage after 5 cycles (cysteic acid units) [1] | oxidative hair damage prevention (in words) [1] | Hydrogen Peroxide Decomposition Ratio (% Loss) ([4]; pH 10, 300 ppm copper sulphate, 0.026M chelant, 30 minutes) | Ratio Cu/Ca (log KCuL/log KCaL) [5] | capacity at inhibiting the red-ox chemistry of copper (in words) [4] | log Conditional Stability Constant (pH 10) Cu [5]
O=P(O)(O)CN(CCN(CP(=O)(O)O)CP(=O)(O)O)CCN(CP(=O)(O)O)CP(=O)(O)O [DTPMP, diethylenetriamine-N,N,N′,N″,N″-penta(methylene phosphonate)] | +14% | 19.5 | 7.1 |  |  |  |  |  | 
O=C(O)CC(NCCNC(CC(=O)O)C(=O)O)C(=O)O (stereo not drawn) [EDDS, ethylenediamine-N,N′-disuccinic acid] | +33% | 18.35 | 4.58 | 110 cysteic acid units | much less damage than hair treated with any other chelant | 1.5% | 3.76 |  | 
O=C(O)CN(CCN(CC(=O)O)CC(=O)O)CC(=O)O [EDTA, ethylenediaminetetraacetic acid] |  | 18.78 | 10.65 |  | very poor damage prevention properties |  |  | very good capacity at inhibiting the red-ox chemistry of copper | 
CC(O)(P(=O)(O)O)P(=O)(O)O [HEDP, 1-hydroxyethane-1,1-diphosphonic acid] | +1% | 11.84 | 6.0 |  |  |  | 1.75 |  | 
diethylenetriaminepentaacetate [DTPA] | +11% | 21.4 | 10.75 | 147 cysteic acid units |  |  | 1.85 |  | 18.78

Reference: patent publication US20070118999A1, “Compositions suitable for the treatment of hair comprising chelants and methods for reducing oxidative hair damage” (The Procter & Gamble Company, priority 2001, published 2007)
